Test results as given in the NIST ThermoML archive (doi:10.1016/j.jct.2018.12.028).

Columns and labels:
[1] = 101.3 kPa, Liquid; for viscosity: Falling or rolling sphere viscometry; for mass density: Vibrating tube method
[2] = wn = mass fraction of the nth substance listed; conditions: 101.3 kPa, Liquid, w1 = 1; for viscosity: Falling or rolling sphere viscometry; for mass density: Vibrating tube method

NCCO [2-aminoethan-1-ol]
[1]
Conditions | mass density [kg/m3] | viscosity [mPa·s]
293.15 K | 1016.7 | 24.23
298.15 K | 1012.8 | 18.94
303.15 K | 1008.8 | 15.04
308.15 K | 1004.9 | 12.14
313.15 K | 1000.9 | 9.938
318.15 K | 996.9 | 8.236
323.15 K | 992.9 | 6.907
328.15 K | 988.8 | 5.855
333.15 K | 984.8 | 5.011
338.15 K | 980.7 | 4.327
343.15 K | 976.6 | 3.766
348.15 K | 972.5 | 3.3
353.15 K | 968.4 | 2.908

NCCO [2-aminoethan-1-ol] + COCCO
[2]
Conditions | mass density [kg/m3] | viscosity [mPa·s]
293.15 K | 1016.7 | 24.23
298.15 K | 1012.8 | 18.94
303.15 K | 1008.8 | 15.04
308.15 K | 1004.9 | 12.14
313.15 K | 1000.9 | 9.938
318.15 K | 996.9 | 8.236
323.15 K | 992.9 | 6.907
328.15 K | 988.8 | 5.855
333.15 K | 984.8 | 5.011
338.15 K | 980.7 | 4.327
343.15 K | 976.6 | 3.766
348.15 K | 972.5 | 3.3
353.15 K | 968.4 | 2.908

COCCO [2-methoxyethan-1-ol]
[1]
Conditions | mass density [kg/m3] | viscosity [mPa·s]
293.15 K | 964.7 | 1.692
298.15 K | 960.1 | 1.527
303.15 K | 955.5 | 1.386
308.15 K | 950.9 | 1.262
313.15 K | 946.2 | 1.155
318.15 K | 941.5 | 1.061
323.15 K | 936.7 | 0.9781
328.15 K | 932 | 0.905
333.15 K | 927.2 | 0.8397
338.15 K | 922.3 | 0.7818
343.15 K | 917.4 | 0.7298
348.15 K | 912.4 | 0.6834
353.15 K | 907.4 | 0.6409
